Experimental data reported in patent publication US12433876B2, “Septin inhibitors for treatment of cancers” (UNIVERSITY OF ROCHESTER, priority 2019, dated 2025).

Target: T1, septin-2 (Homo sapiens, UniProt Q15019)
T1 sequence (Q15019 1-361): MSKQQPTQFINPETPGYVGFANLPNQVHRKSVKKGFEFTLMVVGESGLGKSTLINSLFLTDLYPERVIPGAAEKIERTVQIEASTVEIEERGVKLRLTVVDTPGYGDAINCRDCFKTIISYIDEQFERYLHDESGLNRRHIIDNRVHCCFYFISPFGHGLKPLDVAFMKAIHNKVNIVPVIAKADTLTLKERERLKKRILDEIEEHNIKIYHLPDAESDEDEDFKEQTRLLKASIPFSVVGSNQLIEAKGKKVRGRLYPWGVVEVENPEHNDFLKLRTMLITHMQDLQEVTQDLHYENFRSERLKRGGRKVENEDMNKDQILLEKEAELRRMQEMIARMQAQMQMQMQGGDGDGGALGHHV
Experiment: Confocal analysis of septin-2 filament structure
Format: cell-based
Settings: 48 hours
Source text: Cell Cycle Protein Expression. Cell Cycle Antibody Array (FullMoon BioSystems Inc, catalogue number: ACC:058), a high throughput ELISA based antibody array, designed for qualitative/semi-quantitative protein expression profiling was employed to investigate the protein changes after drug treatment. PANC-1 cells were lysed in buffer containing protease and phosphatase inhibitors (Cell Signaling, catalog number: 9803S). Total protein content was quantified by Bradford assay and equal amounts of proteins were analyzed in duplicate with arrays containing 4 to 6 spots for each of 60 probes (ACC058, Cell Cycle Antibody Array; Full Moon Biosystems, Sunnyvale, Calif.), according to manufacturer's instructions. After background correction, mean signal intensities were measured using FullMoon Inc's imaging services. Protein expressions in both the naïve and 328 treatment group was normalized to GAPDH signals. Confocal Analysis of Septin Disarrangement. To determine the impact of UR214-9 treatment on Septin-2 structure in cells, PANC-1 or JIMT-1 cells were seeded on glass slides and allowed to adhere overnight. The media was replaced with complete DMEM media supplemented with DMSO or UR214-9 (1 μM and 70 nM) and cells were incubated for 48 hours. Media was replaced again with new complete medium and fixed with neutral buffered formalin for 15 minutes at […]. Media was removed and cells were washed repeatedly with PBST (5×5 mL). The cells were stained with Septin-2 antibody (Sigma Aldrich, catalog number: HPA018481) in PSB overnight at […]. Media was removed again and cells were washed with 2×5 mL PBST. The cells were stained with fluorescence linked secondary antibody for 1 hr under dark. Slides were washed repeatedly in dark for 7×5 mL PBST, mounting medium containing DAPI (Vector labs) were applied and covered with glass slide. The slides were stored in dark at […] till analysis. Confocal images were obtained and processed essentially as published earlier (see Moore, R. G., Hill, E. K., Horan, T., Yano, N., Kim, K., MacLaughlan, S., Lambert-Messerlian, G., Tseng, Y. D., Padbury, J. F., Miller, M. C., Lange, T. S., Singh, R. K. Sci Rep. 4, 3574, 2014). Pancreatic tumor microarray (US Biomax, cat no: T142a) were deparaffinized, processed and stained with Septin-2 antibody (Sigma Aldrich, cat number: HPA018481) overnight, washed with PBST and incubated with source matched secondary (FITC) for an hour. Slide was washed in PBST (5×10 mL) for five minutes each. DAPI containing mounting media was applied and covered with a glass slide. Confocal images were acquired with Nikon C1si confocal microscope (Nikon Inc. Mellville N.Y.) using diode lasers 402, 488 and 561. […] Five cells were outlined and analyzed per field. […]

O=C(Nc1cc(Cl)nc(Cl)c1)Nc1cccc(SC(F)(F)F)c1F [UR214-9]
septin-2 needles (JIMT-1, 1 μM): structural disruptions and relocation to nuclear periphery
septin-2 needles (PANC-1, 1 uM): disarranged and translocated at the cell-surface
septin-2 filaments (SKOV-3, 1 μM): complete disruption of septin-2 filaments

O=C(Nc1ccccc1)Nc1ccnc(Cl)c1 [FCF, N-(2-chloro-4-pyridyl)-N′-phenylurea, reference compound]
septin-2 filaments (BXPC-3 cells, 60 μM): strengthen the septin-2 filaments
